Laboratory results: patent publication US12157730B2, “Heteroaryl derivative, method for producing same, and pharmaceutical composition comprising same as effective component” (VORONOI INC., priority 2019, dated 2024)
Values joined by “and” are separate entries in the source; they are usually repeats but may differ in a detail not shown here. Equal entries are not always repeated.

Columns and labels:
PC9GR = assay: Lung cancer cell proliferation suppression, PC9GR; format: cell-based; settings: 72 hours after treatment, CellTiter-Glo
Protocol: (§1) The following experiment was carried out to evaluate the suppression activity of the compounds according to the present invention against proliferation of Ba/F3 and lung cancer cells which express EGFR mutations.
(§2) Of the cancer cell lines expressing the EGFR gene, A549 was cultured after adding 10% FBS (HyClone) to DMEM (Invitrogen), and RPMI-1640 (Invitrogen) with 10% FBS was used for the other cancer cells. For the Ba/F3 cells, RPMI-1640 with 10% FBS and 5 ng/ml IL-3 (R&D Systems) was used. The transduced Ba/F3 cells were cultured by adding 1 ug/ml puromycin (Invitrogen) to the same medium.
(§3) 24 hours before treatment with the compounds, 3000 to 5000 cells were distributed into each well of a white clear bottom 96 well plate (Corning). The compounds were diluted in dimethylsulfoxide (dilution ratio 3:1; 12 concentrations total) and injected 0.5 ul each for a final concentration of 0.3 nM to 50 um. As for measurement of live cells, 72 hours after treatment with the compounds, a CellTiter-Glo luminescent cell-viability reagent (Promega) was used to store the cells at room temperature for 10 minutes, followed by measurement of luminescence using a reader (SynergyNeo, Biotek). Each test was repeated three times.
(§4) The result was calculated as a cell growth ratio (%) compared to a control. The program GraphPad Prism version 5.0 was used to draw the graphs and calculate the GI50 values.

H1975 = assay: Lung cancer cell proliferation suppression, H1975; format: cell-based; settings: Homo sapiens, NCI-H1975; 72 hours after treatment, CellTiter-Glo
Protocol: as §1, §2, §3, §4

PC9 = assay: Lung cancer cell proliferation suppression, PC9; format: cell-based; settings: Homo sapiens, PC-9; 72 hours after treatment, CellTiter-Glo
Protocol: as §1, §2, §3, §4

[1] = Cancer cell proliferation suppression, A549; format: cell-based; settings: A459; 72 hours after treatment, CellTiter-Glo
Protocol: as §1, §2, §3, §4

[2] = target: T1, Ba/F3 cell EGFR Exon20 ins NPH (Homo sapiens, UniProt P00533, INS773NPH); assay: Ba/F3 cell proliferation suppression, EGFR Exon20 ins NPH; format: cell-based; settings: for Ba/F3 (NPH) Activity: GI50 class, Ba/F3 cell line with NPH inserted at Exon20 of EGFR, 72 hours; for GI50: 72 hours after treatment, CellTiter-Glo
T1 construct: expressed in transfected cells; host or cells: Ba/F3
Method in brief: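 Seed 3000–5000 cells/well; after 24 h add compound (12 conc., 0.3 nM–50 um final); incubate 72 h; add CellTiter-Glo, 10 min room temperature; read luminescence; GI50 from % growth vs control, triplicate.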

[3] = target: T2, Ba/F3 cell EGFR L858R/T790M (Homo sapiens, UniProt P00533, L858R/T790M); assay: Ba/F3 cell proliferation suppression, EGFR L858R/T790M; format: cell-based; settings: 72 hours after treatment, CellTiter-Glo
T2 construct: expressed in transfected cells; host or cells: Ba/F3
Protocol: as §1, §2, §3, §4

[4] = system: Ba/F3 cell EGFR Del19/T790M; assay: Ba/F3 cell proliferation suppression, EGFR Del19/T790M; format: cell-based; settings: 72 hours after treatment, CellTiter-Glo
Protocol: as §1, §2, §3, §4

Ba/F3 cell EGFR L858R = target: T3, Ba/F3 cell EGFR L858R (Homo sapiens, UniProt P00533, L858R); assay: Ba/F3 cell proliferation suppression, EGFR L858R; format: cell-based; settings: 72 hours after treatment, CellTiter-Glo
T3 construct: expressed in transfected cells; host or cells: Ba/F3
Protocol: as §1, §2, §3, §4

[5] = target: T4, Ba/F3 cell EGFR Exon20 ins SVD (Homo sapiens, UniProt P00533, INS770SVD); assay: Ba/F3 cell proliferation suppression, EGFR Exon20 ins SVD; format: cell-based; settings: 72 hours after treatment, CellTiter-Glo
T4 construct: expressed in transfected cells; host or cells: Ba/F3
Protocol: as §1, §2, §3, §4

[6] = target: T5, Ba/F3 cell EGFR Exon20 ins FQEA (Homo sapiens, UniProt P00533, INS763FQEA); assay: Ba/F3 cell proliferation suppression, EGFR Exon20 ins FQEA; format: cell-based; settings: 72 hours after treatment, CellTiter-Glo
T5 construct: expressed in transfected cells; host or cells: Ba/F3
Protocol: as §1, §2, §3, §4

[7] = target: T6, Ba/F3 cell EGFR Exon20 ins ASV (Homo sapiens, UniProt P00533, INS769ASV); assay: Ba/F3 cell proliferation suppression, EGFR Exon20 ins ASV; format: cell-based; settings: 72 hours after treatment, CellTiter-Glo
T6 construct: expressed in transfected cells; host or cells: Ba/F3
Protocol: as §1, §2, §3, §4

[8] = target: T7, Ba/F3 cell HER2 Exon20 ins YVMA (Homo sapiens, UniProt P04626, INS775YVMA); assay: Ba/F3 cell proliferation suppression, HER2 Exon20 ins YVMA; format: cell-based; settings: 72 hours after treatment, CellTiter-Glo
T7 construct: expressed in transfected cells; host or cells: Ba/F3
T7 sequence (P04626 with tags, fused parts or gaps INS775YVMA): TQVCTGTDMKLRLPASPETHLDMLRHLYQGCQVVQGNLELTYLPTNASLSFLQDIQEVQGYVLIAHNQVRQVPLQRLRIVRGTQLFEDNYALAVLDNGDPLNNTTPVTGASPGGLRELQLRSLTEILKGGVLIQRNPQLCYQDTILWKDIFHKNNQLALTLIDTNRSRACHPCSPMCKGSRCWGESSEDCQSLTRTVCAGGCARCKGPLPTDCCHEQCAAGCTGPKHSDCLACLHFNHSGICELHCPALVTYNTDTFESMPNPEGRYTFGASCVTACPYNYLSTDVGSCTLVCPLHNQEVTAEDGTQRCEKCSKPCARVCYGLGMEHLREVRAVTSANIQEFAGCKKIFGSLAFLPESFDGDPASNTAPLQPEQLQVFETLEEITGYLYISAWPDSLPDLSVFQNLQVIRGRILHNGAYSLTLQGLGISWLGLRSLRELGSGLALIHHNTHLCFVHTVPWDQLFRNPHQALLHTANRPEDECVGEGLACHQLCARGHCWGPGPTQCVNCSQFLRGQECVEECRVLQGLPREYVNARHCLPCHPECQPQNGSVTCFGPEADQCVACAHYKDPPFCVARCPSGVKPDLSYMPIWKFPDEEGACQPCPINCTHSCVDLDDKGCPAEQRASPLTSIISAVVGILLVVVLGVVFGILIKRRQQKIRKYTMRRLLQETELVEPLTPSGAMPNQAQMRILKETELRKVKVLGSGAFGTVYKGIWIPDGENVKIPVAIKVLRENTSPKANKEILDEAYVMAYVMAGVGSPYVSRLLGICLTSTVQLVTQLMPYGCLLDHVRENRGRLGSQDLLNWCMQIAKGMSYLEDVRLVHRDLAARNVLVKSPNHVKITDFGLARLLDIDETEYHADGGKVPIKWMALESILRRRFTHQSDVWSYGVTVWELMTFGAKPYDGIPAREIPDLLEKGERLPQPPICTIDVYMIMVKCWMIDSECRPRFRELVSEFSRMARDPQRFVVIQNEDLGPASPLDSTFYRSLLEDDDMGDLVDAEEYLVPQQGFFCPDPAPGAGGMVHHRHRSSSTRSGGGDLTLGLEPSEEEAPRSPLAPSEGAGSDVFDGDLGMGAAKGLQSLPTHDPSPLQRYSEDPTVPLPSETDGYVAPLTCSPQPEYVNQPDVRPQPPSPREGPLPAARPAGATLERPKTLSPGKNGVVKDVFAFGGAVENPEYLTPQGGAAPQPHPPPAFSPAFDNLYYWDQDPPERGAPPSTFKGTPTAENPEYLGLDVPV
Protocol: as §1, §2, §3, §4

Ba/F3 cell naive = assay: Ba/F3 cell proliferation suppression, naive; format: cell-based; settings: Mus musculus, BaF3; 72 hours after treatment, CellTiter-Glo
Protocol: as §1, §2, §3, §4

[9] = system: scanMAX kinase panel (EGFR mutant, ERBB2, ERBB4); assay: DiscoverX (eurofin) KINOMEscan (scanMAX platform) kinase profiling; format: binding; settings: for suppression activity against the EGFR mutant and ERBB2 and ERBB4: KINOMEscan scanMAX kinase profiling
Description: It was confirmed that the above example compounds had high selectivity against EGFR series genes. Accordingly, these can be useful in the treating of cancers wherein this kinase is expressed. In particular, as they have substantially outstanding lung cancer cell line proliferation suppression, they can be useful in the treatment of lung cancer, breast cancer, and brain cancer.

[10] = system: Ba/F3 cell EGFR Exon20 ins H; assay: Ba/F3 cell proliferation suppression, EGFR Exon20 ins H; format: cell-based; settings: 72 hours after treatment, CellTiter-Glo
Protocol: as §1, §2, §3, §4

| SMILES | GI50 (PC9GR) [nM] | GI50 (H1975) [nM] | GI50 (PC9) [nM] | GI50 [1] [nM] | Ba/F3 (NPH) Activity [2] | GI50 [3] [µM] | GI50 [4] [µM] | GI50 (Ba/F3 cell EGFR L858R) [µM] | GI50 [2] [µM] | GI50 [5] [µM] | GI50 [6] [µM] | GI50 [7] [µM] | GI50 [8] [µM] | GI50 (Ba/F3 cell naive) [µM] | % inhibition of scanMAX Kinase profiling ([9]; EGFR(E746-A750del)) | % inhibition of scanMAX Kinase profiling ([9]; EGFR(G719C)) [%] | % inhibition of scanMAX Kinase profiling ([9]; EGFR(G719S)) | % inhibition of scanMAX Kinase profiling ([9]; EGFR(L747-E749del, A750P)) | % inhibition of scanMAX Kinase profiling ([9]; EGFR(L747-T751del.Sins)) | % inhibition of scanMAX Kinase profiling ([9]; EGFR(L858R.T790M)) | also measured |
| --- | --- | --- | --- | --- | --- | --- | --- | --- | --- | --- | --- | --- | --- | --- | --- | --- | --- | --- | --- | --- | --- |
| C=CC(=O)N1CCC(Oc2cc3c(Nc4ccc(Cl)c(Cl)c4F)ncnc3cc2OC)CC1 [Poziotinib] | 20 | 34 | 1 | > 15000 |  |  |  |  |  |  |  |  |  |  |  |  |  |  |  |  |  |
| C=CC(=O)Nc1cc(Nc2cc(N3OCC[C@@H]3c3ccccc3)ncn2)c(OC)cc1N1CCC(N2CCOCC2)CC1 [Example 11, N-(4-methoxy-2-(4-morpholinopiperidine-1-yl)-5-((6-((R)-3-phenylisoxazolidine-2-yl)pyrimidine-4-yl)amino)phenyl) acrylamide] | 7 | 9 | 2 | > 15000 | A (GI50 < 50 nM) |  |  |  |  |  |  |  |  |  |  |  |  |  |  |  |  |
| C=CC(=O)Nc1cc(Nc2nccc(-c3cn(C)c4ccccc34)n2)c(OC)cc1N(C)CCN(C)C [Osimertinib] | 16 | 36 | 7 | 2410 |  |  |  |  |  |  |  |  |  |  |  |  |  |  |  |  |  |
| O=C(Nc1cnn2ccc(N3CCC[C@@H]3c3cc(F)ccc3F)nc12)N1CC[C@H](O)C1 [Larotrectinib] | 14 | 24 | 5 | 4820 |  |  |  |  |  |  |  |  |  |  |  |  |  |  |  |  |  |
| C=CC(=O)Nc1cc(Nc2cc(N3OCC[C@@H]3c3cc(F)cc(F)c3)ncn2)c(OC)cc1N1CCC(N2CCOCC2)CC1 [Example 30, N-(5-((6-((R)-3-(3,5-difluorophenyl)isoxazolidine-2-yl)pyrimidine-4-yl)amino)-4-methoxy-2-(4-morpholinopiperidine-1-yl)phenyl) acrylamide] | 6 | 1 | 1 |  | A (GI50 < 50 nM) | < 0.05 | < 0.05 | < 0.05 | < 0.05 | < 0.05 | < 0.05 | < 0.05 | < 0.05 | ≥ 5 | 95% | 100 | 100% | 100% | 96% | 97% | % inhibition of scanMAX Kinase profiling ([9]; EGFR(L858R)): 100%; % inhibition of scanMAX Kinase profiling ([9]; EGFR(L861q)): 100%; % inhibition of scanMAX Kinase profiling ([9]; EGFR(S752-I759del)): 99%; % inhibition of scanMAX Kinase profiling ([9]; EGFR(T790M)): 100%; % inhibition of scanMAX Kinase profiling ([9]; ERBB2): 100%; % inhibition of scanMAX Kinase profiling ([9]; ERBB4): 100%; suppression activity against the EGFR mutant and ERBB2 and ERBB4 [9]: high suppression activity |
| C=CC(=O)Nc1cc(Nc2cc(N3OCC[C@@H]3c3cc(F)cc(F)c3)ncn2)c(OC)cc1N1CCC(N2CCN(C3CC3)CC2)CC1 [Example 57] | 4 | 1 | 1 |  | A (GI50 < 50 nM) | < 0.05 | < 0.05 | < 0.05 | < 0.05 | < 0.05 | < 0.05 | < 0.05 | < 0.05 | ≥ 5 | 98% | 100 | 100% | 98% | 100% | 96% | % inhibition of scanMAX Kinase profiling ([9]; EGFR(L858R)): 100%; % inhibition of scanMAX Kinase profiling ([9]; EGFR(L861q)): 100%; % inhibition of scanMAX Kinase profiling ([9]; EGFR(S752-I759del)): 98%; % inhibition of scanMAX Kinase profiling ([9]; EGFR(T790M)): 100%; % inhibition of scanMAX Kinase profiling ([9]; ERBB2): 100%; % inhibition of scanMAX Kinase profiling ([9]; ERBB4): 100%; suppression activity against the EGFR mutant and ERBB2 and ERBB4 [9]: high suppression activity |
| C=CC(=O)Nc1cc(Nc2cc(N3OCC[C@H]3c3ccccc3)ncn2)c(OC)cc1N1CCN(C)CC1 [Example 3, N-(4-methoxy-2-(4-methylpiperazine-1-yl)-5-((6((S)-3-phenylisoxazolidine-2-yl)pyrimidine-4-yl)amino)phenyl) acrylamide] |  |  |  |  | B (50 nM ≤ GI50 < 500 nM) | 0.5 to 5 | 0.05 to 0.5 |  | 0.05 to 0.5 | 0.05 to 0.5 | < 0.05 | 0.05 to 0.5 | 0.05 to 0.5 | ≥ 5 |  |  |  |  |  |  | GI50 [10]: 0.5 to 5 µM |
| C=CC(=O)Nc1cc(Nc2cc(N3OCC[C@@H]3c3cc(F)cc(F)c3)ncn2)c(OC)cc1N1CCC(N(C)C)CC1 [Example 241, N-(5-((6-((R)-3-(3,5-difluorophenyl)isoxazolidine-2-yl)pyrimidine-4-yl)amino)-2-(4-(dimethylamino)piperidine-1-yl)-4-methoxyphenyl) acrylamide] | 12 | 1 | 1 |  | A (GI50 < 50 nM) | < 0.05 | < 0.05 | < 0.05 | < 0.05 | < 0.05 | < 0.05 | < 0.05 | < 0.05 | 0.5 to 5 | 50% and 100% | 100 | 100% and 99% | 99% and 98% | 100% and 96% | 96% and 98% | % inhibition of scanMAX Kinase profiling ([9]; EGFR(L861q)): 100% and 98%; % inhibition of scanMAX Kinase profiling ([9]; EGFR(S752-I759del)): 100% and 95%; % inhibition of scanMAX Kinase profiling ([9]; EGFR(T790M)): 100%; % inhibition of scanMAX Kinase profiling ([9]; ERBB2): 100%; % inhibition of scanMAX Kinase profiling ([9]; ERBB4): 100% and 94%; suppression activity against the EGFR mutant and ERBB2 and ERBB4 [9]: high suppression activity |
